In brackets after ≈: the same amount, converted by molar mass. Read-outs that look alike come from different tables or passages of the source.

The source of these data is patent publication US20200261440A1, “ZINC IONOPHORES AND USES THEREOF” (THE UNIVERSITY OF QUEENSLAND, priority 2017, published 2020).

Assay in all cases: MIC by broth microdilution (CLSI)
A general note: In broth dilution the organism is exposed to a series of concentrations in liquid medium.

The test system of assay [1] is Streptococcus pneumoniae 23F. The assay is classed as cell-based. Particulars: for MIC: Streptococcus pneumoniae, 23F, read-out: MIC.
The subject of assay [2] is Klebsiella pneumoniae strain MS6771. The format is cell-based. Particulars: Klebsiella pneumoniae, read-out: MIC.
The subject of assay [3] is Vancomycin-resistant Enterococci (VRE) clinical isolate RBWH1. The format is cell-based, Enterococcus. Particulars: Enterococcus, VRE, read-out: MIC. As for the experimental part: J. Path. Bact. […] Proc. Soc.
MIC assays were carried out in biological triplicates.
M100 Performance Standards for Antimicrobial Susceptibility Testing, 27th Edition.

Assay [4] deals with Methicillin-resistant Staphylococcus aureus (MRSA) strain USA300. The settings on record: for MIC: Staphylococcus aureus.
Protocol: GAS HKU16, MRSA USA300, VRE RBWH1, Klebsiella pneumoniae strain MS6771, E. coli strain MS8345 and Streptococcus pneumoniae strain 23F were grown in Todd-Hewitt broth (THB) or agar with 1% yeast extract (THY) [Todd, E. W. & Hewitt, L. F. A new culture medium for the production of antigenic streptococcal haemolysin. […] Bacteria were routinely grown at 37° C. in ambient air.
MICs were determined by broth microdilution in accordance to CLSI guidelines (“Methods for Dilution Antimicrobial Susceptibility Tests for Bacteria That Grow Aerobically”, Clinical and Laboratory Standards Institute) [Clinical and Laboratory Standards Institute. […] For MRSA, VRE, Klebsiella pneumoniae and E. coli the assays were performed in MHB, and for GAS and Streptococcus pneumoniae MHB+2.5% lysed horse blood (LHB) was used. The bacterial inoculum was prepared by direct colony suspension aiming for 2-8×10^5 colony forming units (CFU)/mL bacteria per well. Antibiotics/compounds were serially diluted two-fold across the 96-well plate, the last column contained no antibiotics/compounds. The inoculum was added to the plate containing antibiotic/compound and incubated for 16-24 h at 35+/−2° C. […] MIC assays were carried out in biological triplicates.
Using Clinical and Laboratory Standards Institute guidelines for antimicrobial sensitivity testing [Clinical and Laboratory Standards Institute.
Setting [5] is: MS6771, Klebsiella pneumoniae, CQ: 0 μM, Zinc: 0 μM.
Where [6] appears, read: MS6771, Klebsiella pneumoniae, CQ: 64 μM, Zinc: 256 μM.
The mark [7] stands for this setting: MS6771, Klebsiella pneumoniae, CQ: 64 μM.
Where [8] appears, read: MS6771, Klebsiella pneumoniae, PBT2: 0 μM, Zinc: 0 μM.
Where [9] appears, read: MS6771, Klebsiella pneumoniae, PBT2: 64 μM, Zinc: 256 μM.
Where [10] appears, read: MS6771, Klebsiella pneumoniae, PBT2: 64 μM.
Setting [11] is: MS6771, Klebsiella pneumoniae, Zinc: 256 μM (CQ panel).
Setting [12] is: MS6771, Klebsiella pneumoniae, Zinc: 256 μM (PBT2 panel).
The mark [13] stands for this setting: MS6771, K. pneumoniae, RA-HQ-12: 0 μM, Zn: 0 μM.
The mark [14] stands for this setting: MS6771, K. pneumoniae, RA-HQ-12: 16 μM, Zn: 64 μM.
Where [15] appears, read: MS6771, K. pneumoniae, RA-HQ-12: 16 μM.
The mark [16] stands for this setting: MS6771, K. pneumoniae, Zn: 64 μM.
Where [17] appears, read: MRSA|USA300, MRSA, RA-HQ-12: 0 μM, Zn: 0 μM, oxacillin with 2% NaCl.

As to `O=C(N[C@H](CO)[C@H](O)c1ccc([N+](=O)[O-])cc1)C(Cl)Cl` [Chloramphenicol, chloramphenicol], the minimal inhibitory concentration (MIC) (in general, the lowest concentration that inhibits growth of the organism) was determined as 16 µg/mL (≈ 49.5 µM) in assay [1] (PBT2: 0 μM, Zinc: 0 μM); 2 µg/mL (≈ 6.19 µM) in assay [1] (PBT2: 8 μM, Zinc: 32 μM); 16 µg/mL (≈ 49.5 µM) in assay [1] (PBT2: 8 μM); 16 µg/mL (≈ 49.5 µM) in assay [1] (Zinc: 32 μM); 128 µg/mL (≈ 396 µM) in assay [2] (setting [5]); 64 µg/mL (≈ 198 µM) in assay [2] (setting [6]). For the same compound, the MIC in assay [2] (setting [7]) came to 64 µg/mL (≈ 198 µM); in assay [2] (setting [8]), 128 µg/mL (≈ 396 µM); in assay [2] (setting [9]) it was 128 µg/mL (≈ 396 µM); in assay [2] (setting [10]) it was 128 µg/mL (≈ 396 µM); in assay [2] (setting [11]), 128 µg/mL (≈ 396 µM); in assay [2] (setting [12]), 128 µg/mL (≈ 396 µM). In addition, the “antibiotic sensitivity of resistant strain” value in assay [1] (addition of sub-inhibitory PBT2+zinc(II) ions) is recorded as “became sensitive”.
For the compound `CC1(C)S[C@@H]2[C@H](NC(=O)[C@H](N)c3ccccc3)C(=O)N2[C@H]1C(=O)O` [Ampicillin, ampicillin], the minimum inhibitory concentration (MIC) in assay [1] (PBT2: 0 μM, Zinc: 0 μM) was 8 µg/mL (≈ 22.9 µM); in assay [1] (PBT2: 8 μM, Zinc: 32 μM), 1 µg/mL (≈ 2.86 µM); in assay [1] (PBT2: 8 μM) it was 8 µg/mL (≈ 22.9 µM); in assay [1] (Zinc: 32 μM), 8 µg/mL (≈ 22.9 µM); in assay [2] (setting [13]), more than 128 µg/mL; in assay [2] (setting [14]), more than 128 µg/mL. For the same compound, the minimum inhibitory concentration (MIC) in assay [2] (setting [15]), in assay [2] (setting [16]), in assay [2] (setting [5]), in assay [2] (setting [6]), in assay [2] (setting [7]) and in assay [2] (setting [8]) was more than 128 µg/mL each time. For the same compound, the minimum inhibitory concentration (MIC) in assay [2] (setting [9]) is more than 128 µg/mL; in assay [2] (setting [10]), more than 128 µg/mL; in assay [2] (setting [11]), more than 128 µg/mL; in assay [2] (setting [12]), more than 128 µg/mL; in assay [3] (RA-HQ-12: 3.5 μM, Zn: […]), more than 128 µg/mL; in assay [3] (RA-HQ-12: 3.5 μM), more than 128 µg/mL. Also, the minimum inhibitory concentration (MIC) in assay [3] (Zn: […] (RA-HQ-12 panel)) is more than 128 µg/mL; in assay [3] (RA-HQ-12: 0 μM, Zn: 0 μM), more than 128 µg/mL; in assay [4] (MRSA USA300, CQ: 0 μM, Zinc: 0 μM) it was more than 128 µg/mL; in assay [4] (MRSA USA300, CQ: 1 μM) it was more than 128 µg/mL; in assay [4] (MRSA USA300, CQ: 1 μM, Zinc: 32 μM), 1 µg/mL (≈ 2.86 µM); in assay [4] (MRSA USA300, PBT2: 0 μM, Zinc: 0 μM) it was more than 128 µg/mL. In addition, the MIC was more than 128 µg/mL in assay [4] (MRSA USA300, PBT2: 2 μM); 2 µg/mL (≈ 5.72 µM) in assay [4] (MRSA USA300, PBT2: 2 μM, Zinc: 50 μM); more than 128 µg/mL in assay [4] (MRSA USA300, Zinc: 32 μM); more than 128 µg/mL in assay [4] (MRSA USA300, Zinc: 50 μM); more than 128 µg/mL in assay [4] (setting [17]); more than 128 µg/mL in assay [4] (MRSA|USA300, MRSA, RA-HQ-12: 3.5 μM, Zn: […], oxacillin with 2% NaCl). The compound also yielded an MIC in assay [4] (MRSA|USA300, MRSA, RA-HQ-12: 3.5 μM, oxacillin with 2% NaCl) of more than 128 µg/mL. Also, the “antibiotic sensitivity of resistant strain” value in assay [4] (MRSA USA300, addition of sub-inhibitory PBT2+zinc(II) ions) was “became sensitive”.
For `CN(C)[C@@H]1C(O)=C(C(N)=O)C(=O)[C@@]2(O)C(O)=C3C(=O)c4c(O)cccc4[C@@](C)(O)[C@H]3C[C@@H]12` [Tetracycline, tetracycline], the MIC was 32 µg/mL (≈ 72 µM) in assay [1] (PBT2: 0 μM, Zinc: 0 μM); 1 µg/mL (≈ 2.25 µM) in assay [1] (PBT2: 8 μM, Zinc: 32 μM); 32 µg/mL (≈ 72 µM) in assay [1] (PBT2: 8 μM); 32 µg/mL (≈ 72 µM) in assay [1] (Zinc: 32 μM); 32 µg/mL (≈ 72 µM) in assay [2] (setting [13]); 32 µg/mL (≈ 72 µM) in assay [2] (setting [14]). The minimal inhibitory concentration (MIC) in assay [2] (setting [15]) is 32 µg/mL (≈ 72 µM); in assay [2] (setting [16]), 32 µg/mL (≈ 72 µM); in assay [2] (setting [5]), 32 to 64 µg/mL (≈ 72 to 144 µM); in assay [2] (setting [6]), 4 to 8 µg/mL (≈ 9 to 18 µM); in assay [2] (setting [7]), 16 µg/mL (≈ 36 µM); in assay [2] (setting [8]), 16 to 32 µg/mL (≈ 36 to 72 µM). Besides, the minimum inhibitory concentration (MIC) is 4 µg/mL (≈ 9 µM) in assay [2] (setting [9]); 8 µg/mL (≈ 18 µM) in assay [2] (setting [10]); 8 µg/mL (≈ 18 µM) in assay [2] (setting [11]); 8 µg/mL (≈ 18 µM) in assay [2] (setting [12]); 1 to 2 µg/mL (≈ 2.25 to 4.5 µM) in assay [3] (VRE RBWH1, CQ: 2.5 μM, Zinc: 32 μM); 0.5 µg/mL (≈ 1.13 µM) in assay [4] (setting [17]).
